Blank lines part the entries; values can stand above or below the substance they belong to.
What was measured:
Type in all cases: physicochemical
[1] = nanoUPLC-ESI-Orbitrap-MS retention, BEH C18, 0.1% formic acid; settings: nanoRP-UPLC, 30 °C, XIC; for retention time (tr): Acquity BEH C18 (1.7 µm), 87-min gradient 3 to 40% acetonitrile, glycated peptide mixture, 500 fmol each, glucated peptide or glucosyl-lysine species of the fructated peptide; for retention time (tr), mannosyl-lysine species: Acquity BEH C18, 87-min gradient 3 to 40% acetonitrile, second peak of the fructated peptide (mannosyl-lysine)
Protocol: Peptides were analyzed on a nanoAcquity UPLC (Waters GmbH) coupled on-line to an LTQ Orbitrap XL ETD mass spectrometer equipped with a nano-ESI source (Thermo Fisher Scientific GmbH, Bremen, Germany) operated in positive ion mode. Eluents were aqueous formic acid (0.1% v/v; eluent D1) and acetonitrile-containing formic acid (0.1% v/v; eluent D2). Peptides (10 µL, 500 fmol each) were trapped on a nanoAcquity Symmetry C18 column (ID: 180 μm, length: 2 cm, particle diameter: 5 μm) at a flow rate of 5 μL/min (3% eluent D2). Separation was achieved on a BEH 130 column (C18 phase, ID: 75 μm, length: 10 cm, particle diameter: 1.7 μm) using a flow rate of 0.4 μL/min and a column temperature of 30 °C. Peptides were eluted with two linear gradients from 3 to 40% eluent D2 in 87 min and then to 85% eluent D2 in 5 min. The transfer capillary temperature was set to 200 °C, and an ion spray voltage of 1.4 kV was applied to a PicoTip™ on-line nano-ESI emitter (New Objective, Berlin, Germany). Mass spectra (m/z range 400 to 2000) were recorded in the Orbitrap mass analyzer at a resolution of 60,000 at m/z 400. Tandem mass spectra were acquired in CID mode (isolation width 2 m/z units, normalized collision energy 35%, activation time 30 ms, default charge state 2, intensity threshold of 500 counts) using data-dependent acquisition (DDA) for the six most intense signals with a dynamic exclusion window of 60 s.

[2] = RP-HPLC retention at neutral pH, Synergi Fusion RP, sodium phosphate; settings: linear 65-min gradient 3 to 42% acetonitrile, sodium phosphate 10 mmol/L pH 7.2, 60 °C, UV 214 nm, family mixture
Protocol: (§1) Separations used either a Synergi Fusion-RP C18 column (ID: 2 mm, length: 150 mm, particle size: 4 µm, pore size: 80 Å, Phenomenex) or Aqua C18 column (ID: 2 mm, length: 150 mm, particle size: 3 µm, pore size: 125 Å, Phenomenex) using a System Gold HPLC equipped with a 507e autosampler (100 µL injection volume), a 125NM binary gradient pump, and a 166 UV/VIS detector. Eluents were water (eluent B1) and aqueous acetonitrile (60% v/v, eluent B2 or 40% v/v, eluent B3) containing sodium or potassium phosphate buffer or ammonium acetate (10 mmol/L). Eluents were prepared from aqueous stock solutions (0.1 mol/L) adjusted to pH 7.2, in case of ammonium acetate with ammonia. Solvents were filtered (pore size, 0.2 µm; Pall Corp., Ann Arbor, MI) and sonicated for 15 min prior to use. Peptides were eluted using a linear acetonitrile gradient from either 5 to 95% eluent B2 in 30 min, 5 to 70% eluent B2 in 65 min, or 7.5 to 95% eluent B3 in 58 min. Unless otherwise indicated, separations were performed at 60 °C with a flow rate of 0.2 mL/min and the absorbance was recorded at 214 nm. Fractions were analyzed by matrix-assisted laser desorption/ionization time-of-flight MS (MALDI-TOF/TOF–MS) on a 5800 proteomic analyzer (ABSciex GmbH, Darmstadt, Germany) operating in reflector mode and using a solution of α-cyano-4-hydroxycinnamic acid (4 g/L) in eluent A2 as matrix.

[3] = IP-RP-HPLC retention, Jupiter C18, 0.1% TFA; settings: 60 °C, UV 214 nm
Protocol: Separations used a Jupiter C18 column (ID: 2 mm, length: 150 mm, particle size: 5 µm, pore size: 300 Å, Phenomenex) and a System Gold HPLC equipped with a 508 autosampler (100 µL injection volume), a 125NM binary gradient pump, and a UV detector (Knauer GmbH, Berlin, Germany). Eluents were 0.1% (v/v) TFA (eluent A1) and 60% (v/v) aqueous acetonitrile containing 0.1% (v/v) TFA (eluent A2). Peptides were eluted using a linear acetonitrile gradient from either 5 to 95% eluent A2 in 30 min or 5 to 60% eluent A2 in 55 min. Separations were performed at a column temperature of 60 °C with a flow rate of 0.2 mL/min, and the absorbance was recorded at 214 nm. Separations were performed twice with deviations of the retention times of ~ 0.2 min for the shallow gradient.

[4] = RP-HPLC retention at neutral pH, Synergi Fusion RP, potassium phosphate; settings: potassium phosphate 10 mmol/L pH 7.2, 60 °C, UV 214 nm; for retention time (tr): Synergi Fusion RP, family #2 mixture (Fig. S10)
Protocol: as §1

[5] = RP-HPLC retention at neutral pH, Aqua C18, sodium phosphate; settings: Aqua C18 (3 µm, 125 Å), sodium phosphate 10 mmol/L pH 7.2, 0.6% acetonitrile/min, 60 °C, UV 214 nm, mixture of family #2, order from individual injections
Protocol: as §1

[6] = Jupiter C18, 0.1% TFA, 0.6% acetonitrile/min, family injected as a mixture (Fig. S3F)

retention time (tr) [1]: 59.5 min
Substance: EQLKAmaAVMDDFAAFVEK [7B, glucated (Amadori) tryptic peptide HSA E542-K557, K545]

retention time (tr) [1]: 59.5 min | retention time (tr), mannosyl-lysine species [1]: 60.2 min
Substance: EQLKHeyAVMDDFAAFVEK [7C, fructated (Heyns) tryptic peptide HSA E542-K557, K545]

retention time (tr) [2]: 43.4 min | retention time (tr) [1]: 55.7 min | retention time (tr), mannosyl-lysine species [1]: 56.3 min | retention time [3, 6]: 51.9 min
Substance: AEFAEVSKHeyLVTDLTK [6C, fructated (Heyns) tryptic peptide HSA A226-K240, K233]

Continued, substance first:

Substance: ADLAKAmaYIC*ENQDSISSK [2B, glucated (Amadori) tryptic peptide HSA A258-K274, K262]
retention time (tr) [4]: 32.9 min | retention time (tr) [5]: 38.0 min

Substance: AEFAEVSKAmaLVTDLTK [6B, glucated (Amadori) tryptic peptide HSA A226-K240, K233]
retention time (tr) [2]: 45.3 min | retention time (tr) [1]: 56.0 min | retention time [3, 6]: 52.2 min

Substance: ADLAKHeyYIC*ENQDSISSK [2C, fructated (Heyns) tryptic peptide HSA A258-K274, K262]
retention time (tr) [4]: 31.4 min | retention time (tr) [5]: 36.5 min

Substance: AVGDKHeyLPEC*EAVC*GKPK [1C, fructated (Heyns) tryptic peptide HP A77-K93, glycation site K81]
retention time ([3]; Jupiter C18 (5 µm, 300 Å), 0.1% TFA, 5 to 60% eluent A2 in 55 min (0.6% acetonitrile/min), 0.2 mL/min, performed twice, deviations ~0.2 min): 27.6 min | acetonitrile content at elution ([3]; Jupiter C18, 0.1% TFA, 0.6% acetonitrile/min): ~ 13%

Substance: TC*VADESAENC*DKHeySLHTLFGDK [3C, fructated (Heyns) tryptic peptide HSA T52-K73, K64]
retention time ([4]; new Synergi Fusion RP column, 58-min gradient 3 to 38% acetonitrile (eluent B3, 0.6%/min)): 26.2 min
